The source of these data is PMC10672332, “Lecanicilliums A–F, Thiodiketopiperazine-Class Alkaloids from a Mangrove Sediment-Derived Fungus Lecanicillium kalimantanense” (Marine Drugs, 2023).

≈ marks a conversion by molar mass, not a printed value. Like-named read-outs stand apart in the source and are kept apart here. Bounds are passed on as bounds.

The subject of data set [1] is Staphylococcus aureus ATCC 6538. The experiment in a line: Antibacterial assay, micro broth dilution. The settings on record: ATCC6538, micro broth dilution, LB medium, 24 hours at 37 °C, read-out: Antibacterial Activity (MIC) S. aureus. Type of data set: cell-based. How it is done:
(§1) The micro broth dilution method was used to evaluate the antibacterial activities of compounds 1–19 against the growth of eight common pathogens: Bacillus subtilis BS01, Micrococcus luteus, Escherichia coli ATCC 25922, Staphylococcus aureus ATCC 6538, S. aureus MRSA, Streptococcus agalactiae ATCC 13813, S. iniae, and Pseudomonas aeruginosa ATCC 9027 in 96-well polystyrene plates. Vancomycin and ciprofloxacin were used as positive controls. Briefly, wells containing 100 μL bacteria dilutions (OD600 = 0.01) in Luria–Bertani (LB) medium were supplemented with different concentrations of 1–19 (80, 40, 20, 10, 5, 2.5, 1.25, and 0.625 μg/mL), vancomycin, and ciprofloxacin (40, 20, 10, 5, 2.5, 1.25, 0.625, and 0.3125 μg/mL), respectively. The MICs were determined after 24 hours’ incubation at 37 °C with the tested compounds.

Data set [2] deals with Pseudomonas aeruginosa ATCC 9027. The experiment in a line: Antibacterial assay, micro broth dilution. In kind it is cell-based. To be noted: ATCC9027, micro broth dilution, LB medium, 24 hours at 37 °C, read-out: Antibacterial Activity (MIC) P. aeruginosa. How it is done:
as §1

Data set [3] relates to Bacillus subtilis BS01. The experiment in a line: Antibacterial assay, micro broth dilution. In kind it is cell-based. To be noted: BS01, micro broth dilution, LB medium, 24 hours at 37 °C, read-out: Antibacterial Activity (MIC) B. subtilis. The method, then: as §1
Data set [4] deals with Streptococcus agalactiae ATCC 13813. The data set can be described thus: Antibacterial assay, micro broth dilution. In kind it is cell-based. To be noted: ATCC13813, micro broth dilution, LB medium, 24 hours at 37 °C, read-out: Antibacterial Activity (MIC) S. agalactiae. How it is done: as §1
Data set [5] concerns Escherichia coli ATCC 25922. The experiment in a line: Antibacterial assay, micro broth dilution. In kind it is cell-based. The settings on record: ATCC25922, micro broth dilution, LB medium, 24 hours at 37 °C, read-out: Antibacterial Activity (MIC) E. coli. The method, then: as §1
The test system of data set [6] is S. iniae. The experiment in a line: Antibacterial assay, micro broth dilution. Type of data set: cell-based. To be noted: Streptococcus iniae; micro broth dilution, LB medium, 24 hours at 37 °C; read-out: Antibacterial Activity (MIC) S. iniae. The method, then: as §1
Data set [7] has as its system brine shrimps. The experiment in a line: Brine shrimp lethality bioassay. Type of data set: in vivo. To be noted: Table 3. The source says:
The methods were the same as those used in our previous studies.

Data set [8] concerns S. aureus MRSA. The experiment in a line: Antibacterial assay, micro broth dilution. Type of data set: cell-based. To be noted: Staphylococcus aureus, read-out: Antibacterial Activity (MIC) MRSA. The method, then: as §1
Data set [9] deals with Micrococcus luteus. The experiment in a line: Antibacterial assay, micro broth dilution. In kind it is cell-based. The settings on record: read-out: Antibacterial Activity (MIC) M. luteus. How it is done:
as §1

The nature of data set [10]: Cytotoxicity, CCK-8 method. In kind it is cell-based. The settings on record: human. The method, then:
(§2) Cytotoxic activity was evaluated using the human lung adenocarcinoma cell line H1975 and human hepatocellular carcinoma cell line HepG-2, using the CCK-8 method as described in our previous study. Briefly, each of the test compounds was dissolved in DMSO and further diluted to give final concentrations of 80, 40, 20, 10, 5, 2.5, and 1.25 μM, respectively. H1975 cells or HepG-2 cells (5 × 10^3 […]) were seeded in 96-well plates and treated with compounds at the indicated concentration for 24 hours and then 10 μL CCK-8 reagent was added to each well. The plates were incubated at 37 °C for another 4 hours. Finally, the optical density was measured at a wavelength of 450 nm with a Bio-Rad microplate reader. Dose–response curves were generated, and the IC50 values were calculated from the linear portion of log dose–response curves.

Data set [11] in a line: Cytotoxicity, CCK-8 method. Type of data set: cell-based. To be noted: human. How it is done:
as §2
This is another data set of the same source.

[12] abbreviates: micro broth dilution, LB medium, 24 hours at 37 °C.
Where [13] appears, read: H1975 cells (lung adenocarcinoma cell line), H1975 cells, CCK-8, 24 hours treatment, read-out: Cytotoxicity (IC50) against H1975.
[14] abbreviates: HepG-2 cells (hepatocellular carcinoma cell line), HepG-2 cells, CCK-8, 24 hours treatment, read-out: Cytotoxicity (IC50) against HepG-2.

`O=C(O)c1cn(C2CC2)c2cc(N3CCNCC3)c(F)cc2c1=O` [CFN, Ciprofloxacin, reference compound]: the MIC in data set [1] amounted to 0.6 µg/mL (≈ 1.81 µM); in data set [2] it was 0.6 µg/mL (≈ 1.81 µM); in data set [3], 0.6 µg/mL (≈ 1.81 µM); in data set [4], 5 µg/mL (≈ 15.1 µM); in data set [5], 0.6 µg/mL (≈ 1.81 µM); in [6], 2.5 µg/mL (≈ 7.54 µM).
In the case of `O=C1N2C3OC=CC4SC2(CC3C4O)C(=O)NC12Cc1ccccc1O2` (stereo not drawn) [Compound 1, Lecanicillium A], in data set [7], the “Toxicity (TC50) Brine Shrimp” value was above 80 µg/mL. The minimal inhibitory concentration (MIC) in data set [1] is above 80 µg/mL; in data set [8] (setting [12]), above 80 µg/mL; in [2], above 80 µg/mL; in [3], 60 µg/mL (≈ 161 µM); in data set [4], above 80 µg/mL; in data set [9] (setting [12]) it was above 80 µg/mL. In addition, the MIC in data set [5] and in [6] was above 80 µg/mL each time.
In the case of `CSC12CC3=COC=CC(O)C3N1C(=O)C1(Cc3ccccc3O1)NC2=O` (stereo not drawn) [Compound 2, Lecanicillium B], the IC50 at 24 h in [10] and in data set [11] was above 80 µM throughout. For the same compound, in data set [7], the “Toxicity (TC50) Brine Shrimp” value is above 80 µg/mL. The minimum inhibitory concentration (MIC) in [1] was above 80 µg/mL; in data set [8] (setting [12]) it was above 80 µg/mL; in data set [2] it was above 80 µg/mL; in data set [3] it was 80 µg/mL (≈ 207 µM); in data set [4] it was above 80 µg/mL; in data set [9] (setting [12]), 60 µg/mL (≈ 155 µM). The MIC in data set [5] was above 80 µg/mL; in data set [6], 70 µg/mL (≈ 181 µM).
In the case of `CSC12CC3=COC=CC(OC(C)=O)C3N1C(=O)C1(SC)CC34OC3C3OC3C(OC(C)=O)C4N1C2=O` (stereo not drawn) [Compound 3, Lecanicillium C], the concentration for half-maximal inhibition (IC50) at 24 h in [10] and in [11] was above 80 µM throughout. Besides, in data set [7], the “Toxicity (TC50) Brine Shrimp” value is above 80 µg/mL. Moreover, the MIC in data set [1], in [8] (setting [12]), in data set [2], in data set [3], in data set [4] and in data set [9] (setting [12]) was above 80 µg/mL in each case. The MIC in data set [5] and in data set [6] was above 80 µg/mL throughout.
`CSC12CC3=COC=CC(OC(C)=O)C3N1C(=O)C1(SC)CC3(O)C=CC(=O)C(OC(C)=O)C3N1C2=O` (stereo not drawn) [Compound 4, Lecanicillium D]: the IC50 at 24 h in [10] is 71.5 µM; in data set [11], above 80 µM. In addition, the “Toxicity (TC50) Brine Shrimp” value in data set [7] was determined as 80 µg/mL. In addition, the minimal inhibitory concentration (MIC) in data set [1] was above 80 µg/mL; in data set [8] (setting [12]), above 80 µg/mL; in [2], above 80 µg/mL; in [3] it was 50 µg/mL (≈ 90.8 µM); in data set [4], above 80 µg/mL; in [9] (setting [12]) it was above 80 µg/mL. Also, the minimum inhibitory concentration (MIC) in data set [5] was above 80 µg/mL; in data set [6] it was 40 µg/mL (≈ 72.6 µM).
As to `CS[C@@]1(Cc2ccccc2)NC(=O)[C@H](Cc2ccccc2)NC1=O` [Compound 6, Lecanicillium F], the half-inhibitory concentration (IC50) at 24 h in [10] (setting [13]) and in data set [11] (setting [14]) was above 80 µM throughout. The minimal inhibitory concentration (MIC) in data set [1], in [8] (setting [12]), in data set [2], in data set [3], in data set [4] and in [9] (setting [12]) was above 80 µg/mL throughout. Besides, the MIC in data set [5] and in data set [6] was above 80 µg/mL each time.
Consider `CS[C@@]1(Cc2ccccc2)NC(=O)[C@@](Cc2ccccc2)(SC)NC1=O` [Compound 7, emethacin B], for which the 50% inhibitory concentration (IC50) at 24 h in data set [10] (setting [13]) is 16.9 µM; in data set [11] (setting [14]) it was above 80 µM. In addition, the MIC in data set [1], in data set [8] (setting [12]), in data set [2], in [3], in data set [4] and in data set [9] (setting [12]) was above 80 µg/mL throughout. Also, the minimal inhibitory concentration (MIC) in [5] and in data set [6] was above 80 µg/mL throughout.
As to `CS[C@@]12CC3=COC=C[C@H](OC(C)=O)[C@H]3N1C(=O)[C@]1(SC)CC3=COC=C[C@H](OC(C)=O)[C@H]3N1C2=O` [Compound 8, bisdethiobis(methylsulfanyl)acetylaranotin], the 50% inhibitory concentration (IC50) at 24 h in [10] and in [11] was above 80 µM each time. For the same compound, the MIC in data set [1], in [8] (setting [12]), in [2], in data set [3], in data set [4] and in data set [9] (setting [12]) was above 80 µg/mL in each case. In addition, the minimum inhibitory concentration (MIC) in data set [5] and in data set [6] was above 80 µg/mL in each case.
In the case of `CS[C@@]12CC3=COC=C[C@H](OC(C)=O)[C@H]3N1C(=O)[C@]1(SC)CC3=CC=C[C@H](O)[C@H]3N1C2=O` [Compound 13, bisdethiobis(methylsulfanyl)apoaranotin], the IC50 at 24 h in [10] and in data set [11] was above 80 µM throughout. The minimal inhibitory concentration (MIC) in [1], in data set [8] (setting [12]), in data set [2], in data set [3], in [4] and in data set [9] (setting [12]) was above 80 µg/mL in each case. In addition, the MIC in data set [5] and in [6] was above 80 µg/mL in each case.
Regarding `CS[C@@]12Cc3ccccc3N1C(=O)[C@]1(SC)CC3=COC=C[C@H](OC(C)=O)C3N1C2=O` (stereo partly drawn) [Compound 16, versicolor A], the IC50 at 24 h is 7.2 µM in [10] and above 80 µM in data set [11]. Moreover, the MIC in data set [1] was above 80 µg/mL; in data set [8] (setting [12]) it was above 80 µg/mL; in [2], above 80 µg/mL; in data set [3] it was 70 µg/mL (≈ 153 µM); in data set [4], 70 µg/mL (≈ 153 µM); in [9] (setting [12]) it was above 80 µg/mL. For the same compound, the MIC in [5] and in data set [6] was above 80 µg/mL each time.
For `CS[C@@]12Cc3ccccc3N1C(=O)[C@]1(SC)CC3=COC=C[C@H](O)C3N1C2=O` (stereo partly drawn) [Compound 17, 12,12a-anhydro-desacetyl-bis-dethio-7a, 14a-di-(methylmercapto)-apoaranotin], the IC50 at 24 h in data set [10] was 35.2 µM; in data set [11] it was above 80 µM. For the same compound, the MIC in data set [1] was above 80 µg/mL; in data set [8] (setting [12]) it was above 80 µg/mL; in [2], above 80 µg/mL; in data set [3], 80 µg/mL (≈ 192 µM); in [4] it was 70 µg/mL (≈ 168 µM); in data set [9] (setting [12]) it was above 80 µg/mL. In addition, the minimal inhibitory concentration (MIC) in data set [5] was above 80 µg/mL; in data set [6], 30 µg/mL (≈ 72 µM).
In the case of `CS[C@@H]1NC(=O)[C@@](Cc2ccccc2)(SC)NC1=O` [Compound 19, citriperazine B], the IC50 at 24 h in data set [10] (setting [13]) and in [11] (setting [14]) was above 80 µM throughout. Also, the MIC in data set [1] was above 80 µg/mL; in data set [8] (setting [12]), above 80 µg/mL; in data set [2], above 80 µg/mL; in [3], 80 µg/mL (≈ 270 µM); in data set [4], above 80 µg/mL; in data set [9] (setting [12]), 70 µg/mL (≈ 236 µM). The MIC in data set [5] and in data set [6] was above 80 µg/mL throughout.
`CN[C@H](CC(C)C)C(=O)N[C@H]1C(=O)N[C@@H](CC(N)=O)C(=O)N[C@H]2C(=O)N[C@H]3C(=O)N[C@H](C(=O)N[C@H](C(=O)O)c4cc(O)cc(O)c4-c4cc3ccc4O)[C@H](O)c3ccc(c(Cl)c3)Oc3cc2cc(c3O[C@@H]2O[C@H](CO)[C@@H](O)[C@H](O)[C@H]2O[C@H]2C[C@](C)(N)[C@H](O)[C@H](C)O2)Oc2ccc(cc2Cl)[C@H]1O` [VMN, Vancomycin, reference compound]: the MIC turned out to be 2.5 µg/mL (≈ 1.73 µM) in data set [8] (24 h) and 0.6 µg/mL (≈ 0.414 µM) in data set [9] (24 h).
